Legend:
Assay type in all cases: in vivo
[1] = tested on: boll weevil (Anthonomus grandis); test: Activity against boll weevil, insect diet with eggs in microtiter plates; details: 120 h, test solution 2500 mg/L, sprayed onto diet, 5 days, read-out: mortality (egg and larval) in comparison with untreated controls
Protocol: The compounds were formulated in 75:25 (vohvol) water:DMSO.
For evaluating control of boll weevil (Anthonomus grandis) the test unit consisted of 24-well-microtiter plates containing an insect diet and 20-30 A. grandis eggs. Different concentrations of formulated compounds were sprayed onto the insect diet at 20 μI, using a custom built micro atomizer, at two replications. After application, the microtiter plates were incubated at 23±1° C. and 50±5% relative humidity for 5 days. Egg and larval mortality was then visually assessed.

[2] = tested on: vetch aphid (Megoura viciae); test: Activity against vetch aphid, sprayed bean leaf disks in microtiter plates; details: foliar, 144 h, test solution 2500 mg/L, leaf disk spray, 6 days, read-out: mortality in comparison with untreated controls
Protocol: The active compounds were formulated in 1:3 (vol:vol) DMSO:water with different concentrations of formulated compounds.
Bean leaf disks were placed into microtiterplates filled with 0.8% agar-agar and 2.5 ppm OPUST™. The leaf disks were sprayed with 2.5 μl of the test solution and 5 to 8 adult aphids were placed into the microtiterplates which were then closed and kept at 23±1° C. and 50±5% relative humidity under fluorescent light for 6 days. Mortality was assessed on the basis of vital, reproduced aphids. Aphid mortality and fecundity was then visually assessed.

[3] = tested on: cowpea aphid (Aphis craccivora); test: Activity against cowpea aphid, sprayed potted cowpea plants; details: spray, population reduction assessed after 24, 72 and 120 hours, read-out: mortality in comparison with untreated controls
Protocol: The active compounds were formulated in 50:50 (vohvol) acetone:water. The test solution was prepared at the day of use.
Potted cowpea plants colonized with 100-150 aphids of various stages were sprayed after the pest population had been recorded. Population reduction was assesed after 24, 72, and 120 hours.

[4] = tested on: Mediterranean fruitfly (Ceratitis capitata); test: Activity against Mediterranean fruitfly, insect diet with eggs in microtiter plates; details: 120 h, sprayed onto diet with eggs, 5 days, read-out: mortality (egg and larval)
Protocol: The active compounds were formulated in 1:3 (vohvol) DMSO:water.
For evaluating control of Mediterranean fruitfly the test unit consisted of microtiter plates containing an insect diet and 50 to 80 C. capitata eggs.
Different concentrations of formulated compounds were sprayed onto the insect diet at 5 μI, using a custom built micro atomizer, at two replications. After application, microtiter plates were incubated at 28±1° C. and 80±5% relative humidity for 5 days. Egg and larval mortality was then visually assessed.

[5] = tested on: Vanda/orchid thrips (Dichromothrips corbetti); test: Activity against Vanda/orchid thrips, dipped orchid petals; details: petal dip, after 72 hours, read-out: mortality in comparison with untreated controls
Protocol: The active compounds were formulated as a 50:50 (vohvol) acetone:water solution. Surfactant (Alkamuls® EL 620 from Rhodia) was added at the rate of 0.1% (vol/vol). Vanda orchids petals were cleaned, washed and air dried prior to dipping. Petals were dipped into the test solution for 3 seconds, air dried, placed inside a resealable plastic and inoculated with 20 adults. The treated petals were kept inside the holding room at 28-29° C. and relative humidity of 50-60%. Percent mortality was recorded after 72 hours.

[6] = tested on: silverleaf whitefly (Bemisia argentifolii, adult); test: Activity against silverleaf whitefly adults, sprayed cotton plants; details: 72 h, spray, 3 days after treatment, read-out: mortality in comparison with untreated controls
Protocol: The active compounds were formulated in cyclohexanone as a 10,0000 ppm solution supplied in 1.3 ml ABgene® tubes. These tubes were inserted into an automated electrostatic sprayer equipped with an atomizing nozzle and they served as stock solutions for which lower dilutions were made in 50% acetone:50% water (v/v). A nonionic surfactant (Kinetic®) was included in the solution at a volume of 0.01% (v/v).
Cotton plants at the cotyledon stage (one plant per pot) were sprayed by an automated electrostatic plant sprayer equipped with an atomizing spray nozzle. The plants were dried in the sprayer fume hood and then removed from the sprayer. Each pot was placed into a plastic cup and 10 to 12 whitefly adults (approximately 3-5 days old) were introduced. The insects were collected using an aspirator and 0.6 cm, nontoxic Tygon® tubing (R-3603) connected to a barrier pipette tip. The tip, containing the collected insects, was then gently inserted into the soil containing the treated plant, allowing insects to crawl out of the tip to reach the foliage for feeding. Cups were covered with a reusable screened lid (150-micron mesh polyester screen PeCap from Tetko, Inc.). […] Mortality was assessed 3 days after treatment, compared to untreated control plants.

[7] = tested on: brown planthopper (Nilaparvata lugens); test: Activity against brown planthopper, sprayed rice seedlings; details: spray, after 72 hours, read-out: mortality in comparison with untreated controls
Protocol: The active compounds were formulated as a 50:50 (vohvol) acetone:water solution. Surfactant (Alkamuls® EL 620 from Rhodia) was added at the rate of 0.1% (vol/vol).
Rice seedlings were cleaned and washed 24 h before spraying. Potted rice seedlings were sprayed with 5 ml test solution, air dried, placed in cages and inoculated with 10 adults. Treated rice plants were kept at 28-29° C. and relative humidity of 50-60%. Percent mortality was recorded after 72 hours.

[8] = tested on: diamondback moth (Plutella xylostella); test: Activity against diamondback moth, dipped cabbage leaf disk; details: foliar, test solution 500 ppm, leaf dip, third instar larvae, after 72 h, read-out: mortality in comparison with untreated controls
Protocol: The active compounds were formulated in 50:50 acetone:water and 0.1% (vol/vol) Alkamuls® EL 620 surfactant. A 6 cm leaf disk of cabbage leaves was dipped in the test solution for 3 seconds and allowed to air dry in a Petri plate lined with moist filter paper. The leaf disk was inoculated with 10 third instar larvae and kept at 25-27° C. and 50-60% humidity for 3 days. Mortality was assessed after 72 h of treatment.

Compound	mortality at 2500 µg/mL [1] [%]	mortality at 2500 µg/mL [2] [%]	mortality at 500 ppm [3] [%]	mortality at 2500 ppm [4] [%]	mortality at 500 ppm [5] [%]	mortality at 500 ppm [6] [%]	mortality at 500 ppm [7] [%]	mortality at 500 ppm [8] [%]
CC(SCCSC(F)(F)F)c1nnc(C(F)(F)F)s1 (centres unmarked) [11-1, 2-(Trifluoromethyl)-5-{1-[2-(trifluoromethylthio)ethylthio]ethyl}-1,3,4-thiadiazole]	100	100						
CC(c1nnc(C(F)(F)F)s1)S(=O)(=O)CCSC(F)(F)F (centres unmarked) [11-2, 2-(Trifluoromethyl)-5-{1-[2-(trifluoromethylthio)ethylsulfonyl]-ethyl}-1,3,4-thiadiazole]	100	100	≥ 75	≥ 50	≥ 75	≥ 75		
CC(c1nnc(C(F)(F)F)s1)[S+]([O-])CCSC(F)(F)F (centres unmarked) [11-3, 2-(Trifluoromethyl)-5-{1-[2-(trifluoromethylthio)ethylsulfinyl]ethyl}-1,3,4-thiadiazole]	100	100	≥ 75		≥ 75		≥ 75	≥ 75
CC(Cl)(c1nnc(C(F)(F)F)s1)[S+]([O-])CCSC(F)(F)F (centres unmarked) [11-8, 2-{1-Chloro-1-[2-(trifluoromethylthio)ethylsulfinyl]ethyl}-5-(trifluoromethyl)-1,3,4-thiadiazole]	100						≥ 75	
CC(C#N)(SCCSC(F)(F)F)c1nnc(C(F)(F)F)s1 (centres unmarked) [11-9, 2-(5-(trifluoromethyl)-1,3,4-thiadiazol-2-yl)-2-(2-(trifluoromethylthio)ethylthio)propanenitrile]				≥ 50				

— patent publication US9023874B2, “Fluorinated oxa or thia heteroarylalkylsulfide derivatives for combating invertebrate pests” (Merial, Inc., priority 2009, dated 2015)
